Reference: US12440476B2, “Agents that target telomerase reverse transcriptase (TERT) for treating cancer and sensitizing cancer cells to genotoxic therapy” (Northwestern University, priority 2022, dated 2025)

How the values were obtained:
CT26 cells [1] = assay: Clonogenic survival after irradiation (radiosensitivity); format: cell-based, mouse; details: for Sensitization of CT26 cells to radiation: non-toxic doses; for Mean SF2 (surviving fraction at 2 Gy): CT26 cells, NU-1 1 μM, BIBR 1532 20 μM, MST-312 2 μM for 1 h prior to IR
Experimental: (§1) To assess radiosensitivity, MCF7, Saos-2, or CT26 cells were seeded in 6-well plates at 100 cells per well in triplicate, allowed to attach overnight and treated with DMSO or TERT inhibitors at subtoxic concentrations for 1 h prior to IR. MCF7 cells were treated with 0.5 μM NU-1, 10 μM BIBR 1532, or 1 μM MST-312, Saos-2 cells with 1 μM NU-1 or 20 μM BIBR 1532 and CT26 cells with 1 μM NU-1, 20 μM BIBR 1532 or 2 μM MST-312. Doses of 0, 1, 2, 3, 4, or 5 Gy were applied using a GammaCell ^60Co γ-ray source (Nordion) at a dose rate of 7.09 cGy/sec. After that MCF7 and Saos-2 cells were cultured for 3 weeks and CT26 for 2 weeks, then fixed and stained with crystal violet. Colonies of at least 50 cells were counted. Data from three independent biological replicates were acquired. The surviving fraction (SF) was calculated using the following formula: […]

MCF7 cells [2] = assay: as above; format: cell-based, human; details: MCF7 cells; NU-1 0.5 μM, BIBR 1532 10 μM, MST-312 1 μM for 1 h prior to IR; 2 Gy
Experimental: as §1

Saos-2 cells = assay: as above; format: cell-based, human; details: NU-1 1 μM
Experimental: as §1

CT26 cells [3] = assay: Senescence-associated beta-galactosidase (SA-β-Gal) assay; format: cell-based, mouse; details: non-toxic doses, 10 Gy, 5 days
Experimental: (§2) MCF7, Saos-2, or CT26 cells were seeded at 3×10^4 per well in 6-well plates and allowed to attach to plate overnight. For TERT inhibition, MCF7 cells were treated with DMSO vehicle, NU-2 (0.5 μM), NU-1 (0.5 μM), chrolactomycin (0.5 μM), BIBR 1532 (10 μM), or MST-312 (1 μM) for 1 h prior to IR, Saos-2 cells were treated with DMSO vehicle, NU-2 (1 μM), NU-1 (1 μM), chrolactomycin (1 μM), BIBR 1532 (20 μM), or MST-312 (1 μM) for 1 h prior to IR, and CT26 cells were treated with MSO vehicle, NU-2 (1 μM), NU-1 (1 μM), chrolactomycin (1 μM), BIBR 1532 (20 μM), or MST-312 (2 μM) for 1 h prior to IR. Then MCF7 and Saos-2 cells were irradiated with 0 or 6 Gy and CT26 cells with 0 or 10 Gy. After IR, MCF7 and Saos-2 cells were continuously cultured for 7 days and CT26 for 5 days, then fixed in 2% PFA and stained with staining buffer (1 mg/ml X-Gal (Golden Bio), 40 mM citric acid/sodium phosphate, 150 mM NaCl, 2 mM MgCl2, 3.3 mM K3[Fe(CN)6], 3.3 mM K4[Fe(CN)6], pH=6) for 16 h at 37° C., then washed with warm PBS three times and imaged in PBS within a week. Images were captured on a Zeiss Axiovert 200M microscope with a 20× Plan-NeoFluar objective and Axiocam digital camera. SA-β-Gal-positive and -negative cells were counted in more than 5 fields, yielding an average percentage indicated on each SA-β-Gal image as mean±SD. Three replicates were performed.
To examine the roles for STING, CT26 cells were seeded at 2×10^4 per well in 12-well plates and allowed to attach overnight. STING inhibitor C178 (0 or 4 μM) was added, followed by the addition of DMSO vehicle, NU-1 (1 μM), MST-312 (2 μM) or chrolactomycin (1 μM) for 1 h prior to 0 or 10 Gy. CT26 cells were cultured for 5 days, surviving cells were washed twice in PBS and cultured in fresh immune cell culture medium overnight. The CT26 cells were then cocultured with BMDCs for 12-16 h at a 1:2 ratio, and BMDCs were collected and analyzed after coculturing, as described above.

CT26 cells [4] = assay: Clonogenicity assay (inhibitor alone); format: cell-based, mouse; details: 1 μM NU-1, 2 μM MST, 20 μM BIBR
Experimental: MCF7, Saos-2, or CT26 cells were seeded in 6-well plates at 100 cells per well in triplicate and allowed to attach overnight. MCF7 or CT26 cells were then treated with DMSO vehicle or TERT inhibitors in final concentration of 0.25, 0.5, 0.75, 1, 2 μM for NU-1, 2.5, 5, 7.5, 10, 20 μM for BIBR 1532, or 1, 2, 3, 4, 5 μM for MST-312. Saos-2 cells were treated with DMSO vehicle or TERT inhibitors in final concentration of 0.25, 0.5, 0.75, 1, 2 μM for NU-1 or 2.5, 5, 10, 20, 40 μM for BIBR 1532. The final volume of cell culture medium was 3 mL per well. MCF7 and Saos-2 cells were continuously cultured for 3 weeks and CT26 for 2 weeks in the presence of TERT inhibitors, fixed in methanol for 5 min, then stained with 0.5% crystal violet for 10 min at room temperature. After washing with water, the plates were dried at room temperature and imaged with an iBright Imaging System (Thermo Fisher Scientific).

MCF7 cells [5] = assay: Senescence-associated beta-galactosidase (SA-β-Gal) assay; format: cell-based, human
Experimental: as §2, with “For TERT inhibition, MCF7 cells were treated with DMSO vehicle, NU-2 (0.5 μM), NU-1 (0.5 μM), chrolactomycin (0.5 μM), BIBR 1532 (10 μM), or MST-312 (1 μM) for 1 h prior to IR, Saos-2 cells were treated with DMSO vehicle, NU-2 (1 μM), NU-1 (1 μM), chrolactomycin (1 μM), BIBR 1532 (20 μM), or MST-312 (1 μM) for 1 h prior to IR, and CT26 cells were treated with MSO vehicle, NU-2 (1 μM), NU-1 (1 μM), chrolactomycin (1 μM), BIBR 1532 (20 μM), or MST-312 (2 μM) for 1 h prior to IR.” left out

MCF7-FUCCI cells = assay: Time-lapse live-cell analysis of cell cycle; format: cell-based, human; details: 0.5 μM for 1 h, then 6 Gy, 6 days
Experimental: MCF7-FUCCI cells were seeded at 3×10^4 per well in 6-well plates, allowed to attach overnight, then treated with 0.5 μM NU-2 control, NU-1 or chrolactomycin for 1 h, followed by 6 Gy. Then, live-cell imaging was conducted using the IncuCyteS3. Phase contrast along with green and red channels were acquired at 20× magnification with scanning every 2 h for 6 days. 16 non-overlapping fields were captured for each well. Representative consecutive images were used to create the movies using Fiji (Schindelin et al., 2012).

CD8+ T cells = assay: In vitro T cell priming assay (CFSE dilution); format: cell-based, mouse; details: DCs stimulated by inhibitor treated and irradiated (10 Gy) CT26 cells; 5 days; NU-1 1 μM, MST 2 μM
Experimental: To evaluate effects of TERT on tumor immunogenicity, CT26 cells were seeded at […] per well in 12-well plates, allowed to attach overnight, and then treated with DMSO, NU-1 (1 μM), or MST-312 (2 μM) for 1 h, followed by 0 or 10 Gy. 5 days after IR, the media were removed, cells washed with PBS, and fresh immune cell culture medium added. CT26 cells were then cultured overnight, followed by coculturing with immature BMDCs for 12-16 h at a 1:2 ratio. After coculture, the suspension BMDCs were collected into round bottom FACS tubes, washed with PBS, and stained with Zombie yellow (1:1000, BioLegend) for 10 min at room temperature. […] After PBS washing, cells were resuspended in 300 μL Cell Staining Buffer and analyzed using a BD Fortessa 4-15 HTS Flow cytometer within 2 hours. Data were then analyzed by FlowJo software. […]
Splenocytes isolated from CT26 immunized mice were stained with 0.5 μM carboxyfluorescein succinimidyl ester (CFSE) (Thermo Fisher Scientific, Cat #C34554) for 10 min at room temperature (Quah et al., 2007). […] Cells were analyzed using a BD Fortessa 4-15 HTS flow cytometer and FlowJo software. […]

SMILES	Sensitization of CT26 cells to radiation (CT26 cells [1])	Mean SF2 (surviving fraction at 2 Gy) (CT26 cells [1])	Mean SF2 (surviving fraction at 2 Gy) (MCF7 cells [2])	Radiosensitization in clonogenic survival assay (Saos-2 cells; Saos-2 (telomerase negative), BIBR 20 μM)	Mean SF2 (surviving fraction at 2 Gy) (Saos-2 cells; Saos-2 cells, BIBR 1532 20 μM for 1 h prior to IR, 2 Gy)	Senescence induction by IR (CT26 cells [3])	Tolerance in clonogenic assay (inhibitor alone) (CT26 cells [4])	Enhancement of senescence after IR at low concentration (MCF7 cells [5]; 50 nM, 7 days after IR)	Surviving cells arrested with G1 marker expression and senescent morphology (MCF7-FUCCI cells) [%]	Proliferating CD8+ T cells (CD8+ T cells) [%]	SA-β-Gal+ cells (MCF7 cells [5]; 7 days after IR (6 Gy)) [%]
C/C(=C\C(=O)Nc1ccccc1C(=O)O)c1ccc2ccccc2c1 [BIBR 1532]	had no similar effects	0.727	0.256	Neither NU-1 nor BIBR displayed radiosensitization	0.580	had no similar effects	non-toxic				
C=C1C(=O)[C@]2(OC)C(=O)O[C@@]34C[C@H](C)C(C(=O)O)=C[C@@H]3CCC[C@@H](C)C[C@@H](C)[C@H]1O[C@H]24 [CHRO, chrolactomycin, reference compound]								sufficient to enhance senescence after IR	~80		
O=C(Nc1cccc(NC(=O)c2cccc(O)c2O)c1)c1cccc(O)c1O [MST-312]	sensitized CT26 cells to radiation	0.407	0.245			enhanced senescence induction by IR	tolerated			30.4	
COC(=O)[C@@]1(C)C(=O)C[C@@H](C)O[C@H]1CCc1cn(Cc2ccc(F)cc2F)nn1 [NU-2]									~40		~34
